Experimental data taken from US20250002435A1, “ARYLATED FENCHONE DERIVATIVES, COMPOSITIONS COMPRISING THEM, PROCESSES FOR THEIR PREPARATION AND USES THEREOF” (priority 2021, published 2025).
pEC50: −log10 of the molar value. Several values for one entry are separate records, joined by “and”; a condition that tells them apart may be missing. Equal entries are not always repeated.

Columns and labels:
[1] = test system: medial meniscal tear (MMT) post-traumatic OA; assay: rat medial meniscal tear (MMT) model, body weight and dynamic weight bearing; type: in vivo; settings: FGF18 60 μg/mL IA
Method: Initially, the required amount of HU308 dissolved in ethanol followed by addition of […] with vigorous mechanical agitation to form viscous micelle solution. Finally, the micelle solution was diluted in ice cold saline for injection or culture assays. Vehicle solution consisted of ethanol, cremophor and saline at 1:1:18 ratio. For intra-articular (IA) dosing 50 μL was injected into the tibiofemoral joint, at two doses; 8 and 24 μg/mL. Vehicle control contained 1:1:18 ethanol/Cremophor/saline, while positive control was of IA administered 60 μg/mL FGF-18 (R&D Systems, catalogue No. 8988-F18-050, lot No. BVE0521071) for IA dosing at 50 μL/knee.
(§1) The rat OA model employed was surgically-induced medial meniscal tear (MMT), wherein rats were anesthetized with Isoflurane (VetOne, catalogue No. 502017), and the right knee area was prepared for surgery. A skin incision was made over the medial aspect of the knee, and the medial collateral ligament was exposed by blunt dissection and then transected. The medial meniscus was cut through the full thickness to simulate a complete tear. Skin and subcutis were closed with 4-0 Coated Vicryl (polyglactin 910) Violet Braided Suture (Ethicon, catalogue No. J399H), and slight hand pressure was applied to the wound for approximately 3 minutes for hemostasis. Subcutaneous (SC) dose of buprenorphine (0.05 mg/kg) administered after the animal awakened post-surgery. Rats were weighed daily on study days −1 through 7 and again on days 14, 21, and 28 (prior to necropsy). […] The animals were euthanized for necropsy 28 days post-surgery, following Isoflurane anesthesia, and bled to exsanguination followed by bilateral pneumothorax.

[2] = test system: medial meniscal tear (MMT) post-traumatic OA; assay: rat MMT model, histopathology of medial tibial joint 28 days post MMT; type: in vivo; settings: FGF18 60 μg/mL IA
Method: as §1
Right knees were collected from all animals and trimmed of muscle and patellae. The trimmed joints were placed in 10% neutral buffered formalin (NBF) for histologic processing and evaluation. Samples were fixed for 3 days in 4% paraformaldehyde and decalcified for 21 days in 10% EDTA, pH=7.5. Then following dehydration in a graded series of ethanol washes, joints were embedded in paraffin and sectioned to 7 μm slices, following trimming off 1 mm until the tibiofemoral compartments are fully observed. Sections were obtained from each knee and stained with toluidine blue (0.04% in 0.2 M acetate buffer, Ph=4.0), based on a modified version of the methods used in Schmitz, et al. (2010), (11). Histopathology was carried out using an ocular micrometer. The following structural histological characterization was carried out:
Regional differences across the tibial plateau were taken into consideration by dividing each section into three zones: (1) outside, (2) middle, and (3) inside. In the surgical OA model, the outside (zone-1) and middle (zone-2) thirds are most severely affected, and milder changes are present on the inside third (zone 3). When zones were scored individually, scores were assigned based on percent area of the zone affected. General cartilage degeneration including chondrocyte death/loss, proteoglycan (PG) loss, and collagen loss or fibrillation. Zones were scored individually (0-5; 5 representing sever damage; SD3), and a sum of all three zones was calculated (termed “Total Joint scores”).
The zone related cartilage depth is calculated from the projected articular surface tot the tidemark. Reduced ratios embody less detected cartilage width vs projected cartilage with area, per zone.
Osteophyte thickness (tidemark to furthest point extending toward synovium) was measured and scored according to a range from 0-5, as in SD4.
Damage to the calcified cartilage layer and subchondral bone was scored using the criteria in SD5. Generally damage was considered as invagination of deep zone cartilage into the subchondral bone layer.
[…] Descriptions of other changes (typically fibrosis, or acute inflammation/neutrophil infiltration extending into the lateral compartment usually associated with IA treatments) were also provided, if present.

TNFα = assay: serum TNFα ELISA 24 h after zymosan injection; type: in vivo, mouse; settings: AM630 added to 1D
Method: Blood was collected 24 h after zymosan injection, and the sera were assayed for TNFα using a mouse TNFα ELISA kit (R&D Systems, Minneapolis, MN, USA), according to the manufacturer's instructions.

[3] = test system: zymosan-induced hyperalgesia; assay: zymosan mouse paw inflammatory pain model, von Frey test, with or without CB2 antagonists; type: in vivo; settings: addition of AM630, 24 h
Method: (§2) To induce inflammation, 40 μL of 1.5% (w/v) zymosan A (Sigma) suspended in 0.9% saline was injected into the sub-planter surface of the right hind paw of the mice. Immediately after zymosan injection, antagonists were injected intraperitoneally (IP) and after 30 minutes, the fenchone derivatives dissolved in 0.1 mL vehicle containing ethanol:Cremophore:saline at a ratio of 1:1:18 were injected. Control mice were injected with the vehicle only. After 2, 6, and 24 hrs, paw swelling, and pain perception were measured.
(§3) Specifically, measurement of Oedema Formation was assessed by monitoring paw swelling via calibrated calipers (0.01 mm), 6 and 24 hrs following injections of zymosan alone and/or the test compounds. Pain hyperalgesia was evaluated by the paw withdrawal von Frey test at 6, and 24 h following injections of zymosan and/or the test compounds. […] In this study, only 1.4-60 g corresponding to 4.17 to 5.88 log of force was used, to test the mouse sensitivity to a mechanical stimulus on the swollen paw. The measurements were performed in a quiet room. Before paw pain measurements, the animals were held for 10 sec. The trained investigator applied the filament to the central area of the hind paw with gradual increasing size. The test consisted of poking the middle of the hind paw to provoke a flexion reflex followed by a clear flinch response after paw withdrawal. Each one of the von Frey filaments was applied for approximately 3-4 s to induce the end-point reflex. The first testing was done by using the force filament of 1.4 g. If there was no withdrawal response, the next higher stimulus was tried. The mechanical threshold force (in grams (g)) was defined as the lowest force imposed by two von Frey monofilaments of various sizes, required to produce a paw retraction. The untreated left hind paw served as a control.

[4] = test system: zymosan-induced paw swelling; assay: zymosan mouse paw inflammatory pain model, paw swelling, with or without CB2 antagonists; type: in vivo; settings: 10 mg/kg AM630 with 1D, 24 h
Method: as §2, §3

[5] = test system: zymosan-induced hyperalgesia; assay: von Frey nociceptive filament assay after zymosan (5b, 5d, CBD); type: in vivo, mouse
Method: (§4) Cannabidiol (CBD), a major constituent of Cannabis, resembles fenchone derivatives in structure. It has powerful anti-inflammatory and anti-anxiety properties and therefore it is used as a positive control. […] In accordance with these findings, the anti-nociceptive effect, as determined by the von Frey monofilament assay peaked at 6 h (p<0.01) (FIG. 10C).
(§5) To induce inflammation, 40 μL of 1.5% (w/v) zymosan A (Sigma) suspended in 0.9% saline was injected into the sub-planter surface of the right hind paw of the mice. Immediately after zymosan injection, fenchone derivative was injected intraperitoneally (i.p.) after the compounds were dissolved in 0.1 mL vehicle containing ethanol:Cremophore:saline at a ratio of 1:1:18. Control mice were injected with the vehicle only. After 2, 6 and 24 hrs, paw swelling and pain perception were measured.
The hyperalgesia was evaluated by the paw withdrawal von Frey test at 2, 6, and 24 hrs following injections of zymosan and/or the test compounds. […] In this study, only 1.4-60 g corresponding to 4.17 to 5.88 log of force was used, to test the mouse sensitivity to a mechanical stimulus on the swollen paw. The measurements were performed in a quiet room. Before paw pain measurements, the animals were held for 10 sec. The trained investigator applied the filament to the central area of the hind paw with gradual increasing size. The test consisted of poking the middle of the hind paw to provoke a flexion reflex followed by a clear flinch response after paw withdrawal. Each one of the von Frey filaments was applied for approximately 3-4 s to induce the end-point reflex. The first testing was done by using the force filament of 1.4 g. If there was no withdrawal response, the next higher stimulus was tried. The mechanical threshold force (in grams (g)) was defined as the lowest force imposed by two von Frey monofilaments of various sizes, required to produce a paw retraction. The untreated left hind paw served as a control.

mCB1R = mCB1R (Mus musculus (Mouse), UniProt P47746); assay: [3H]CP-55,940 competition displacement binding, crude membranes from mouse brain; settings: displacement of [3H]CP-55,940; NB = No binding detected at concentrations up to 10 μM; read-out: Ki (nM) mCB1R
Method: (§6) Affinity for Cannabinoid Receptors. The compounds were further characterized using a radioligand binding assay to determine their affinities for CB1R and CB2R based on each test compound's ability to displace the radiolabeled CB1R/CB2R agonist CP-55,940 from membranes prepared from a mouse brain (a source of CB1R) and membranes of cells expressing the human CB2R. […] Therefore, the compounds were assayed using membranes from CHO-K1 cells expressing the human CB2R (hCB2R).
(§7) Membranes from cells expressing human CB2R were purchased from Charles River, (Cat #A308; Ohio, US). Solutions of test compounds ranging from 0.1 nM to 10 mM were prepared in DMSO. The desired amount of membrane preparation was diluted with ice-cold assay buffer (50 mM Tris-HCl, 2.5 mM EDTA, 5 mM MgCl2, 0.1% BSA, pH 7.4) and was vortexed. […] The assays were incubated for 90 minutes at 30° C. and then immediately filtered on WHATMAN GF/B FilterPaper (Fired) using a Brandel M-24R Harvester followed by six washes with ice cold wash buffer (50 mM Tris-HCl, 2.5 mM EDTA, 5 mM MgCl2, 0.1% BSA, pH 7.4). Radioactivity was detected by adding the FilterPaper directly to the ULTIMA GOLD scintillation cocktail (PerkinElmer), incubation at 20° C. for 60 min and then counted using a Tri-Carb 4910TR liquid scintillation counter.

hCB2R [6] = target: T1, hCB2R (Homo sapiens (Human), UniProt P34972); assay: [35S]GTPγS binding assay, hCB2R CHO cell membranes; type: biochemical; settings: for functional activity at hCB2R (agonist / inverse agonist): [35S]GTPγS binding
Method: Functional Characterization.
The method used for measuring agonist-stimulated binding of [^35S]GTPγS was based on a described protocol. The assays were carried out with GTPγS assay buffer (50 mM Tris HCl (pH 7.4), 0.2 mM EGTA, 9 mM MgCl2, 150 mM NaCl, 1 mg/ml BSA). Briefly, membranes (5 μg protein) were incubated in assay buffer containing 100 μM GDP, 0.05 nM [^35S]GTPγS, test compounds at various concentrations in siliconized glass tubes. Bound ligand was separated from free ligand by vacuum filtration. Nonspecific binding was determined using 10 μM GTPS. Basal binding was assayed in the absence of the ligand and in the presence of GDP.

[7] = test system: zymosan-induced swelling of hind paw; assay: zymosan-induced hind paw swelling in mice (5b, 5d, CBD); type: in vivo, mouse
Method: as §4, §5
The paw swelling (thickness) was measured by calibrated calipers (0.01 mm), 2, 6 and 24 hrs following injections of zymosan alone or Fenchone derivatives.

hCB2R [8] = target: T1, hCB2R; assay: [3H]CP-55,940 competition displacement binding, membranes of CHO-K1 cells expressing human CB2R
Method: as §6, §7

T1 sequence (P34972 whole entry): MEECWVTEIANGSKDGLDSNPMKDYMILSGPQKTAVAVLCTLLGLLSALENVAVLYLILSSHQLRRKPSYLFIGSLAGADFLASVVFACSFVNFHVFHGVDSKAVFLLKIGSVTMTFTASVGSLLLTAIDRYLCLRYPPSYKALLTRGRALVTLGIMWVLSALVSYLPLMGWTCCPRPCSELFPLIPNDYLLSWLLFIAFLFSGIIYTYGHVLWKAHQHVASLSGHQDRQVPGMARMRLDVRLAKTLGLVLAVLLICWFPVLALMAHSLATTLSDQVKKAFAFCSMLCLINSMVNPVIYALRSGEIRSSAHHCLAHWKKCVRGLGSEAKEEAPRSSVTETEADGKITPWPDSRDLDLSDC
Sequence of mCB1R (P47746 whole entry): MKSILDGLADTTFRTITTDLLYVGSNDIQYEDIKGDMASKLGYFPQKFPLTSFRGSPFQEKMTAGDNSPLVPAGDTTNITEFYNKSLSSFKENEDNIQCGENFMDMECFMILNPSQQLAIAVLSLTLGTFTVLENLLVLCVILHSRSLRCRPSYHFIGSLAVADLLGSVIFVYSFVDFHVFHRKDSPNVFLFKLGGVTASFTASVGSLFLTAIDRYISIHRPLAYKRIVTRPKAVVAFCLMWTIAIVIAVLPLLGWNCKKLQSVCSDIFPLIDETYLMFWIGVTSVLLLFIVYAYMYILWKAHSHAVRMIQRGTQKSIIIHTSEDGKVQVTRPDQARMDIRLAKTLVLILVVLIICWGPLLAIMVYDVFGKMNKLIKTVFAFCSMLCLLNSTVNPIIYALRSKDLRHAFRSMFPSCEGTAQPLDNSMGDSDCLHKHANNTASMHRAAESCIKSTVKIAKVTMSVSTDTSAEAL

## FGF18: positive control, IA administered 60 μg/mL FGF-18 (R&D Systems); anabolic effect to articular cartilage
[1]
  cumulative area under the curves for dynamic weight bearing (DWB): highest values
[2]
  mean zonal depth ratios: reduced depth ratios
  zone 3 cartilage degeneration score: no beneficial effect
[2]; vs 1D low dose and Vehicle
  total zonal cartilage degeneration scores: significantly reduced degenerative scores
[2]; vs all groups
  medial synovial scores: highest
  osteophyte measurements and scores: significantly higher measurements and scores
[2]; vs the 1D high dose
  bone damage: relatively reduced levels

## COc1ccc(C(=O)c2c(C)n(CCN3CCOCC3)c3cc(I)ccc23)cc1 [AM630, reference compound]
TNFα
  effect of antagonist on the 1D reduction of TNF-α: abolished
[3]
  effect of antagonist on the 1D von Frey effect: reversed
[4]
  effect of antagonist on the 1D-reduced swelling: fully inhibited its effect

## CCCCCCC(C)(C)c1cc(O)c(C2(O)C3(C)CCC(C3)C2(C)C)c(OC)c1 (stereo not shown) [Compound 5d, 2-(2′-hydroxy-6′-methoxy-4′-(2″-methyloctan-2″-yl)phenyl)-1,3,3-trimethyl-bicyclo[2.2.1]heptan-2-ol]
[5]; 25 and 50 mg/kg ip, after 6 h
  anti-nociceptive effect (von Frey): moderate anti-nociceptive effects
mCB1R
  Ki: 451 nM
hCB2R [6]
  functional activity at hCB2R (agonist / inverse agonist): agonist
hCB2R [6]; [35S]GTPγS binding to hCB2R, two independent experiments in triplicate
  pEC50: 7.83
hCB2R [6]; percentage of HU-308 response at 1 μM
  E(max) %: 105.05%
[7]; 25 mg/kg ip, 24 h
  inhibition of inflammation (paw swelling): 55% and 56%
[7]; 50 mg/kg ip, 2 h
  inhibition of inflammation (paw swelling): 38%
[7]; 50 mg/kg ip, 6 h
  inhibition of inflammation (paw swelling): 67%
[7]; 50 mg/kg ip, 24 h
  inhibition of inflammation (paw swelling): 56%
hCB2R [8]; displacement of [3H]CP-55,940
  Ki: 24.6 nM
hCB2R [8]; selectivity index from Ki values
  mCB1R/hCB2R: 18.4

## C=C(C)[C@@H]1CCC(C)=C[C@H]1c1c(O)cc(CCCCC)cc1O [CBD, Cannabidiol, reference compound]
[5]; CBD positive control
  time at which the anti-nociceptive effect peaked (von Frey): 6 h
[7]; 5 mg/kg ip, 6 h, FIG. 10A
  inhibition of inflammation (paw swelling): 40%
[7]; 5 mg/kg ip, 24 h, FIG. 10A
  inhibition of inflammation (paw swelling): 43%
[7]; positive control in the 5d experiment (FIG. 10B), 6 h
  inhibition of inflammation (paw swelling): 58%
[7]; positive control in the 5d experiment (FIG. 10B), 24 h
  inhibition of inflammation (paw swelling): 78%

## CCCCCc1cc(O)c(C2(O)C3(C)CCC(C3)C2(C)C)c(OC)c1 (single isomer, unassigned) [Compound 5b, 2-(2′-hydroxy-6′-methoxy-4′-pentylphenyl)-1,3,3-trimethylbicyclo[2.2.1]heptan-2-ol]
[5]; 10 and 25 mg/kg ip, after 6 and 24 h
  anti-nociceptive effect (von Frey): strong anti-nociceptive effects
hCB2R [6]
  functional activity at hCB2R (agonist / inverse agonist): agonist
